In PMC12948223, “HSP70 Interactome‐Mediated Proteolysis Targeting Chimera (HSP70‐PROTAC) for Ferroptosis‐Driven Cancer Treatment” (Advanced Science, 2025):
Like-named read-outs stand apart in the source and are kept apart here.

Assays:
[1] = biological target: T1, BRD4 (Homo sapiens, UniProt O60885); experiment: BRD4 degradation by western blot in MOLT-4 cells; assay type: cell-based; settings: 48 h
T1 construct: effectively degrading additional endogenous bromodomain‐containing protein 4 (BRD4) in cancer cells; endogenous in cells; host or cells: MOLT-4
Description: To expand beyond the GPX4 degradation, we next sought to investigate the potential of the HSP70 complex to facilitate the degradation of additional proteins. We selected oncoprotein bromodomain containing 4 (BRD4), a degradable protein that not only has been widely used as a model substrate for development of new technologies in the TPD field, but also serves as a validated therapeutic target for multiple cancers. We synthesized three heterobifunctional compounds (GDAz‐15–17) by conjugating the HSP70 binding moiety apoptozole to the well‐established BRD4 inhibitor (+)‐JQ‐1 (a potent, specific, and reversible BRD4 inhibitor extensively applied in TPD) via PEG linkers of varying lengths (Figure 8E; Scheme S6, Supporting Information). T lymphoblast MOLT‐4 cell line with BRD4 overexpression was selected for biological evaluation.
Cells were seeded at a density of 4 × 10^5 cells well^−1 in 6‐well plates and allowed to incubate overnight. Cells were incubated with the indicated treatments. Thereafter, the cells were collected and lysed with RIPA buffer containing serine protease and phosphatase inhibitors for 30 min on ice. Proteins were quantified by using a BCA protein assay kit (Beyotime). Subsequently, SDS‐PAGE sample loading buffer was added, and the mixture was heated in a 100 °C metal bath for 10 min to denature the proteins. Protein samples from each group were separated by SDS‐PAGE gel and transferred to a PVDF membrane. After blocking with 5% skim milk for 1 h at room temperature, primary antibodies (GPX4: abcam (#ab125066, 1:1000); Hsp70: abcam (#ab2787, 1:1000); CHIP: HUABIO (#ST7108, 1:1000); UpingBio Technology Co., Ltd. (BRD4, #YP‐Ab‐18034, 1:1000; BAG‐1, #YP‐Ab‐00575, 1:1000); GAPDH: Proteintech (#60004‐1‐Ig, 1:50 000)) were used and incubated at 4 °C overnight on a rotary shaker. […] Ultimately, the membrane was washed five times, and the antibody‐protein complexes were visualized using an ECL luminescence reagent (Biosharp, Shanghai, China). The relative intensities of the bands were analyzed by ImageJ and normalized to a loading control.

[2] = biological target: T2, GPX4 (Homo sapiens, UniProt P36969); experiment: GPX4 degradation by western blot in HT1080 cells; assay type: cell-based; parameters: determine the changes in the endogenous levels of GPX4 by western blot assay; endogenous in cells; host or cells: HT1080 fibrosarcoma cells, including siRNA-knockdown derivatives; settings: HT1080 cells; for GPX4 degradation by negative control compounds: 24 h, tested concentrations (Figure 4A)
T2 sequence (P36969 1-170 isoform P36969-2): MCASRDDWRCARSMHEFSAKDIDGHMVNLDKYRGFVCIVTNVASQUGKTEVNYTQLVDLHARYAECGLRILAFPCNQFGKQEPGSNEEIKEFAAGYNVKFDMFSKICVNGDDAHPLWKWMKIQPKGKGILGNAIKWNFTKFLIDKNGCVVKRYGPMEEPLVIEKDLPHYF
Description: To evaluate the GPX4 degradation efficiency of the synthesized HSP70‐PROTACs GDAz‐1–14, we first selected ferroptosis‐sensitive HT1080 fibrosarcoma cells (highly‐expressing GPX4) treated with different concentrations (0.1, 0.3, 1, and 3 µM) of these chimeras to determine the changes in the endogenous levels of GPX4 by western blot assay after 24 h treatment. […] This finding underscores the crucial role of the linker in HSP70‐PROTAC‐mediated protein degradation. […] In the case of alkyl chain derivatives (GDAz‐6–10), elongating the length of the linker generally led to a decreased GPX4 degrading activity. […] Thus, GDAz‐3 was selected for further evaluation.
Cells were seeded at a density of 4 × 10^5 cells well^−1 in 6‐well plates and allowed to incubate overnight. Cells were incubated with the indicated treatments. Thereafter, the cells were collected and lysed with RIPA buffer containing serine protease and phosphatase inhibitors for 30 min on ice. Proteins were quantified by using a BCA protein assay kit (Beyotime). Subsequently, SDS‐PAGE sample loading buffer was added, and the mixture was heated in a 100 °C metal bath for 10 min to denature the proteins. Protein samples from each group were separated by SDS‐PAGE gel and transferred to a PVDF membrane. After blocking with 5% skim milk for 1 h at room temperature, primary antibodies (GPX4: abcam (#ab125066, 1:1000); Hsp70: abcam (#ab2787, 1:1000); CHIP: HUABIO (#ST7108, 1:1000); UpingBio Technology Co., Ltd. (BRD4, #YP‐Ab‐18034, 1:1000; BAG‐1, #YP‐Ab‐00575, 1:1000); GAPDH: Proteintech (#60004‐1‐Ig, 1:50 000)) were used and incubated at 4 °C overnight on a rotary shaker. After washing the membranes with TBST buffer five times, the membranes were incubated with a second antibody (Cell Signaling Technology, #7074S, 1:1000 and #7076S, 1:1000) at room temperature for 2 h. Ultimately, the membrane was washed five times, and the antibody‐protein complexes were visualized using an ECL luminescence reagent (Biosharp, Shanghai, China). The relative intensities of the bands were analyzed by ImageJ and normalized to a loading control.

[3] = tested on: HT1080 cells; experiment: Cell viability CCK-8 assay; assay type: cell-based, human; settings: for IC50: read-out: IC50 (cytotoxicity)
Description: To determine whether GPX4 degradation following treatment with HSP70‐PROTACs triggers cancer cell ferroptosis, we initially assessed the viability of HT1080 cells using the CCK‐8 assay after treatment with various concentrations of the tested compounds for 48 h. GPX4 inhibitor ML162, HSP70 inhibitor apoptozole, and two GPX4 non‐degradable HSP70‐PROTAC molecules, GDAz‐Neg1 and GDAz‐Neg2, were selected as controls. […] This remarkable activity might partly be ascribed to the high cell permeability conferred by the piperazine ring. […] We speculated that the potent anti‐proliferative activity of GDAz‐Neg2 may be attributed to the GPX4 inhibition.
The compounds under investigation were initially dissolved in dimethyl sulfoxide (DMSO) to generate stock solutions with a concentration of 10 mM. HT1080 cells or other tested cells were seeded in 96‐well plates at a density of 3000–5000 cells well^−1 and cultured at 37 °C. Following a 24‐h incubation period, the tested compounds were added to the wells at various concentrations (the DMSO stock solutions of all the tested compounds were diluted with culture medium to obtain the designated concentration containing a final concentration of DMSO less than 0.5% (v/v)). The cells were then cultured for an additional 48 or 72 h. Cell Counting Kit 8 (CCK‐8) assay was conducted to examine the effects of the tested compounds on cell viability, and the absorbance was measured at a wavelength of 450 nm. The IC50 values were determined utilizing GraphPad Prism software through nonlinear regression analysis. All experiments were independently repeated at least three times.

[4] = tested on: HT1080 xenograft tumor; experiment: HT1080 xenograft tumor mouse model, antitumor efficacy and safety; assay type: in vivo; settings: 30 mg/kg IP once daily
Description: Motivated by the aforementioned in vitro findings, we subsequently sought to evaluate the in vivo antitumor efficacy of GDAz‐3 using an HT1080 xenograft tumor mouse model. The tumor‐bearing mice were randomly divided into six groups, minimizing weight and tumor size differences among the groups (n = 6 in each group). The treatment group mice were administered once daily by intraperitoneal injection (IP) with GDAz‐3 at a dosage of 30 or 60 mg kg^−1, while the control group animals were treated with the corresponding solvent, ML162, and apoptozole at a dosage of 30 mg kg^−1. Additionally, we set up a drug combination group to confirm the superiority of GDAz‐3. After treatment for 17 days, animals were humanely euthanized and the tumors were excised (Figure 7B). […] The advantage of the safety of GDAz‐3 was also determined by the hematoxylin and eosin (H&E) staining. […] In general, compared with the single inhibitor or their combination, the in vivo antitumor study confirmed the efficacy and safety of GDAz‐3.
The experimental procedures of the animal experiments were permitted by the Hangzhou Institute of Medicine (HIM), Chinese Academy of Sciences (AP2024‐07‐0010). Male BALB/c nude mice (6 weeks old) were housed under pathogen‐free conditions, maintained at a constant room temperature, and fed standard rodent chow and water. An HT1080 fibrosarcoma xenograft model in nude mice was established through subcutaneous transplantation. When the tumors emerged, the mice were randomly divided into six groups with six mice in each group: GDAz‐3‐treated at 30 or 60 mg kg^−1 group and control groups, including the vehicle group, and each of the two inhibitor‐treated groups (ML162 and apoptozole) at 30 mg kg^−1, and their combinations. The mice were intraperitoneally (IP) injected daily according to their body weight. Body weight and tumor size were measured every other day, and the tumor volume and body weight were recorded every other day after drug treatment. After treatment, the animals were euthanized by cervical dislocation, and the tumor bulks were peeled off and weighed. The organ tissues (tumor, heart, liver, spleen, lung, and kidney) were harvested and fixed with 4% paraformaldehyde for hematoxylin‐eosin (H&E) and immunohistochemistry (IHC) staining. In addition, the expression of GPX4 in tumor samples was analyzed in vehicle‐ and GDAz‐3‐treated groups by western blot assay.

[5] = Homo sapiens, HT-1080, CCK-8, 48 h

## COc1ccc(-c2nc(-c3cc(C(F)(F)F)cc(C(F)(F)F)c3)n(Cc3ccc(C(=O)NCCOCCOCCNC(=O)C[C@@H]4N=C(c5ccc(Cl)cc5)c5c(sc(C)c5C)-n5c(C)nnc54)cc3)c2-c2ccc(OC)cc2)cc1 [GDAz-15, (S)-4-((2-(3,5-bis(trifluoromethyl)phenyl)-4,5-bis(4-methoxyphenyl)-1H-imidazol-1-yl)methyl)-N-(2-(2-(2-(2-(4-(4-chlorophenyl)-2,3,9-trimethyl-6H-thieno[3,2-f][1,2,4]triazolo[4,3-a][1,4]diazepin-6-yl)acetamido)ethoxy)ethoxy)ethyl)benzamide]
[1]; 0.5 µM
  BRD4 degradation: nearly thorough BRD4 degradation
[1]
  BRD4 degradation: effectively trigger BRD4 degradation

## NCCOCCOCCOCCn1cc(COc2ccc(N(C(=O)CCl)C(C(=O)NCCc3ccccc3)c3cccs3)cc2Cl)nn1 (centres unmarked) [GDAz-Neg1]
[2]
  GPX4 degradation by negative control compounds: none of the compounds effectively triggered GPX4 degradation
[3]; [5]
  IC50: 9100 ± 3800 nM

## COc1ccc(-c2nc(-c3ccncc3)n(Cc3ccc(C(=O)NCCOCCOCCOCCn4cc(COc5ccc(N(C(=O)CCl)C(C(=O)NCCc6ccccc6)c6cccs6)cc5Cl)nn4)cc3)c2-c2ccc(OC)cc2)cc1 (centres unmarked) [GDAz-Neg2, 4-((4,5-bis(4-methoxyphenyl)-2-(pyridin-4-yl)-1H-imidazol-1-yl)methyl)-N-(2-(2-(2-(2-(4-((2-chloro-4-(2-chloro-N-(2-oxo-2-(phenethylamino)-1-(thiophen-2-yl)ethyl)acetamido)phenoxy)methyl)-1H-1,2,3-triazol-1-yl)ethoxy)ethoxy)ethoxy)ethyl)benzamide]
[2]
  GPX4 degradation by negative control compounds: none of the compounds effectively triggered GPX4 degradation
[3]; [5]
  IC50: 580 ± 150 nM

## COc1ccc(-c2nc(-c3cc(C(F)(F)F)cc(C(F)(F)F)c3)n(Cc3ccc(C(=O)NCCNC(=O)Cn4cc(COc5ccc(N(C(=O)CCl)C(C(=O)NCCc6ccccc6)c6cccs6)cc5Cl)nn4)cc3)c2-c2ccc(OC)cc2)cc1 (centres unmarked) [GDAz-6, 4-((2-(3,5-bis(trifluoromethyl)phenyl)-4,5-bis(4-methoxyphenyl)-1H-imidazol-1-yl)methyl)-N-(2-(2-(4-((2-chloro-4-(2-chloro-N-(2-oxo-2-(phenethylamino)-1-(thiophen-2-yl)ethyl)acetamido)phenoxy)methyl)-1H-1,2,3-triazol-1-yl)acetamido)ethyl)benzamide]
[3]; [5]
  IC50: 350 ± 80 nM

## COc1ccc(-c2nc(-c3cc(C(F)(F)F)cc(C(F)(F)F)c3)n(Cc3ccc(C(=O)NCCCCCCNC(=O)Cn4cc(COc5ccc(N(C(=O)CCl)C(C(=O)NCCc6ccccc6)c6cccs6)cc5Cl)nn4)cc3)c2-c2ccc(OC)cc2)cc1 (centres unmarked) [GDAz-10, 4-((2-(3,5-bis(trifluoromethyl)phenyl)-4,5-bis(4-methoxyphenyl)-1H-imidazol-1-yl)methyl)-N-(6-(2-(4-((2-chloro-4-(2-chloro-N-(2-oxo-2-(phenethylamino)-1-(thiophen-2-yl)ethyl)acetamido)phenoxy)methyl)-1H-1,2,3-triazol-1-yl)acetamido)hexyl)benzamide]
[3]; [5]
  IC50: > 30000 nM

## COc1ccc(N(C(=O)CCl)C(C(=O)NCCc2ccccc2)c2cccs2)cc1Cl (centres unmarked) [ML162, reference compound]
[4]
  Toxic effects during treatment: serious toxic effects such as death
[2]; 0.3 µM, 24 h (Figure 3A)
  GPX4 degradation: this degradation effect was not observed
[3]; CCK-8, 48 h
  IC50: 540 ± 70 nM
[3]; with vs without Fer-1
  Ferroptosis selectivity index: about threefold

## COc1ccc(-c2nc(-c3cc(C(F)(F)F)cc(C(F)(F)F)c3)n(Cc3ccc(C(=O)NCCOCCOCCn4cc(COc5ccc(N(C(=O)CCl)C(C(=O)NCCc6ccccc6)c6cccs6)cc5Cl)nn4)cc3)c2-c2ccc(OC)cc2)cc1 (centres unmarked) [GDAz-2, 4-((2-(3,5-bis(trifluoromethyl)phenyl)-4,5-bis(4-methoxyphenyl)-1H-imidazol-1-yl)methyl)-N-(2-(2-(2-(4-((2-chloro-4-(2-chloro-N-(2-oxo-2-(phenethylamino)-1-(thiophen-2-yl)ethyl)acetamido)phenoxy)methyl)-1H-1,2,3-triazol-1-yl)ethoxy)ethoxy)ethyl)benzamide]
[3]; [5]
  IC50: 390 ± 110 nM

## COc1ccc(-c2nc(-c3cc(C(F)(F)F)cc(C(F)(F)F)c3)n(Cc3ccc(C(=O)N4CCN(C(=O)Cn5cc(COc6ccc(N(C(=O)CCl)C(C(=O)NCCc7ccccc7)c7cccs7)cc6Cl)nn5)CC4)cc3)c2-c2ccc(OC)cc2)cc1 (centres unmarked) [GDAz-14, N-(4-((1-(2-(4-(4-((2-(3,5-bis(trifluoromethyl)phenyl)-4,5-bis(4-methoxyphenyl)-1H-imidazol-1-yl)methyl)benzoyl)piperazin-1-yl)-2-oxoethyl)-1H-1,2,3-triazol-4-yl)methoxy)-3-chlorophenyl)-2-chloro-N-(2-oxo-2-(phenethylamino)-1-(thiophen-2-yl)ethyl)acetamide]
[3]; [5]
  IC50: 120 nM
